Ten compounds from patent publication US5013756A, “Catechol derivatives, a process of preparation thereof, and therapeutical compositions containing the same” (priority 1985, dated 1991) can be followed below.

Experiment [1] addresses T1, cyclooxygenase (human platelets microsomes) (Homo sapiens, UniProt P23219).
T1 construct: human platelets microsomes; from tissue; host or cells: human platelet microsomes (microsomal powder)
The experiment in a line: Cycloxygenase inhibition in human platelets microsomes. It is filed as biochemical. As to conditions: cyclooxygenase (PGE2/TxB2), pH 7.9, 37° C. The method, then: The enzymatic assay was carried out in silanized glassware according to the procedure of P. Ho, P. Walters and H, Sullivan (Prostaglandins 12, 951 1976). The reaction mixture containing 50 mM Tris HCl buffer, pH 7.9, 5mM 2-Tryptophan, […] methemoglobin, 0.2 mg of microsomal powder, and the test compound in a total volume of 0.2 ml was incubated at 37° C. for 5 minutes before the addition of 10 μl of 20 μM^14 C arachidonic acid (0.08 μCI). After 5 minute incubation, the reaction was terminated by the addition of 10 μl of 1M citric acid.
The mixture was extracted four times with 0.5 ml of anhydrous diethyl ether and dried with sodium sulphate. The residue was resuspended in approximately 40 μl of ether and submitted to chromatography on silica gel plates. The elution system consisted of diethyl ether/methanol/acetic acid (90:1:2). The RF values were measured relative to arachidonic acid. Thin layer chromatography plates (TLC) were exposed on LKB ultrafilm for about 24 hours. Partial identification of the spots were carried out by running standards (PGA2, PGB2, PGE2, PGF2c, PXB2, arachidonic acid) in the same solvent system. Quantitative results were obtained by scanning the developed film with a transmission densitometer (EC Apparatus 910) interfaced with a Hewlett Packard 3390A integrator.
The activity of the substances of the cyclooxygenase is quantified by the 2 spots corresponding to PGE2 and TxB2 (ratio PGE2 /TxB2).

Experiment [2] has as its target xanthine oxidase (Bos taurus, UniProt P80457). Description: In vitro screening of compounds as potential inhibitors of xanthine oxidase. It is filed as biochemical. As to conditions: xanthine oxidase 0.01 units/ml, xanthine 5.10^-5 M, pH 7.4. An excerpt: A unit of activity was defined as a change of 0.001 units/minute.
Experiment [3] deals with T2, 5-lipoxygenase (human leucocytes) (Homo sapiens, UniProt P09917).
T2 construct: human leucocytic lipoxygenase; endogenous in cells; host or cells: human (polynuclear) leucocytes
T2 sequence (P09917 1-674): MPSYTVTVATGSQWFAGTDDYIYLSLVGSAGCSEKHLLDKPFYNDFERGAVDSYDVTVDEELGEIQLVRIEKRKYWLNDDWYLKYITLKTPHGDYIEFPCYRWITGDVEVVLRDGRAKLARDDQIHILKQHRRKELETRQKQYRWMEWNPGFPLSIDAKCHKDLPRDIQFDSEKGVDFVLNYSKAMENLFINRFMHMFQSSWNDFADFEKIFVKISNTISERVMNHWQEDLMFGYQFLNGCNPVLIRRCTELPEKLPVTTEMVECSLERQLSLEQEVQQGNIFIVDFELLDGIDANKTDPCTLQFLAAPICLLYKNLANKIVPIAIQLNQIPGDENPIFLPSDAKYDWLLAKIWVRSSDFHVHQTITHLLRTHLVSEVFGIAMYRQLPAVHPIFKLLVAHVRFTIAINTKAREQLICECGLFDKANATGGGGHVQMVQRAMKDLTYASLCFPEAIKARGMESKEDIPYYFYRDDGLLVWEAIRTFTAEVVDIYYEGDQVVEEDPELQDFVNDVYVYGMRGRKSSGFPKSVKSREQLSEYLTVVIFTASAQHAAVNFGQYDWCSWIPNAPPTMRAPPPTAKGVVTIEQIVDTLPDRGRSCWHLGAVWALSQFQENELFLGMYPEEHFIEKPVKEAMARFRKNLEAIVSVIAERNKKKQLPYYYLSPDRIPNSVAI
Description: Experiment No. 1: inhibition of 5-lipoxygenase in human leucocytes stimulated by ionophore (5-HETE, LTB4). The format is cell-based. As to conditions: Experiment No. 1, 5-HETE, ionophore A23187 alone. The method, then: (§1) (a) Inhibition on 5- and 12- lipoxygenases human polynuclear
(§2) Protocol for experiment No. 1:
(§3) 2. Stimulation with 1 μg ionophore (A23187)/ml for 4 minutes.
(§4) 3. Stopping of the incubation with 1 volume of methanol.
(§5) 4. Analysis by RP-HPLC, colomn C18, 5 μm.
(§6) 5. Measurement of the height of the peaks and comparison with the internal standard (PGB2).

Experiment [4] concerns the target T3, 12-lipoxygenase (human leucocytes) (Homo sapiens, UniProt P18054).
T3 construct: human leucocytic lipoxygenase; endogenous in cells; host or cells: human (polynuclear) leucocytes
T3 sequence (P18054 1-663): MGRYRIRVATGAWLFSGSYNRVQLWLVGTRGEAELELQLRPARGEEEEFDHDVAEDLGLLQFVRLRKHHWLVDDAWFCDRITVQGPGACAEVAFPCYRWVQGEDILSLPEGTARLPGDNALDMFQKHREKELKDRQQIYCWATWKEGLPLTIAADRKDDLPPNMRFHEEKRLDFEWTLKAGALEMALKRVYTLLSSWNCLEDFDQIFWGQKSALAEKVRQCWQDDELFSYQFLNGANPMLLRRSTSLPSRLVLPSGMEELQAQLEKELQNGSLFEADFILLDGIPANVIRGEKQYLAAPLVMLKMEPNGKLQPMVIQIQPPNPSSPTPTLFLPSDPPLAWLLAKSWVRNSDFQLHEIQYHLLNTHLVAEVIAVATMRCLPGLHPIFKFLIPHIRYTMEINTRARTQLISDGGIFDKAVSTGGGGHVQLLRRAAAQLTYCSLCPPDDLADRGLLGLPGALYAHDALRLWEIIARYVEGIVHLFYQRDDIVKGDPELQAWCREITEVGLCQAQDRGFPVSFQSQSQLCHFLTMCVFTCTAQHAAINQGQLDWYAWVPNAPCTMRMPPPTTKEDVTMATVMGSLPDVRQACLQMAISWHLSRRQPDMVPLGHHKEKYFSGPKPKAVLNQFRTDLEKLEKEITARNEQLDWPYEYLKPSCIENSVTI
Description: Experiment No. 1: inhibition of 12-lipoxygenase in human leucocytes stimulated by ionophore (12-HETE). The format is cell-based. The note with it: Experiment No. 1, 12-HETE, ionophore A23187 alone. Here is the method:
as §1, §2, §3, §4, §5, §6

The target in experiment [5] is T2, 5-lipoxygenase (human leucocytes). Description: Experiment No. 2: inhibition of 5-lipoxygenase in human leucocytes stimulated by ionophore and arachidonic acid (5-HETE, LTB4). The format is cell-based. Here is the method: (§7) (b) Inhibition on 5-, 12- and 15- lipoxygenases human polynuclear
(§8) Protocol for experiment No. 2:
(§9) 2. Stimulation with 10 μg of arachidonic acid and 1 μg of ionophore (A23187)/ml for 4 minutes.
(§10) 3. Stopping of the incubation with 1 volume of methanol and analysis by RP-HPLC.
(§11) 4. Measurement of the height of the peaks and comparison with the internal standard (PGB2).
(§12) It will be noted that in experiment No. 1, the leucocytes have been stimulated by the ionophore alone whereas in experiment No. 2, the cells have been stimulated with ionophore and arachidonic acid.

Experiment [6] relates to HHT (human leucocytes). The experiment in a line: Experiment No. 2: HHT formation in human leucocytes stimulated by ionophore and arachidonic acid. It is filed as cell-based. As to conditions: Leucocyte, ionophore A23187 and arachidonic acid. Here is the method: as §7, §8, §9, §10, §11
Experiment [7] concerns the target T4, 15-lipoxygenase (human leucocytes) (Homo sapiens, UniProt P16050).
T4 construct: endogenous in cells; host or cells: human (polynuclear) leucocytes
T4 sequence (P16050 1-662): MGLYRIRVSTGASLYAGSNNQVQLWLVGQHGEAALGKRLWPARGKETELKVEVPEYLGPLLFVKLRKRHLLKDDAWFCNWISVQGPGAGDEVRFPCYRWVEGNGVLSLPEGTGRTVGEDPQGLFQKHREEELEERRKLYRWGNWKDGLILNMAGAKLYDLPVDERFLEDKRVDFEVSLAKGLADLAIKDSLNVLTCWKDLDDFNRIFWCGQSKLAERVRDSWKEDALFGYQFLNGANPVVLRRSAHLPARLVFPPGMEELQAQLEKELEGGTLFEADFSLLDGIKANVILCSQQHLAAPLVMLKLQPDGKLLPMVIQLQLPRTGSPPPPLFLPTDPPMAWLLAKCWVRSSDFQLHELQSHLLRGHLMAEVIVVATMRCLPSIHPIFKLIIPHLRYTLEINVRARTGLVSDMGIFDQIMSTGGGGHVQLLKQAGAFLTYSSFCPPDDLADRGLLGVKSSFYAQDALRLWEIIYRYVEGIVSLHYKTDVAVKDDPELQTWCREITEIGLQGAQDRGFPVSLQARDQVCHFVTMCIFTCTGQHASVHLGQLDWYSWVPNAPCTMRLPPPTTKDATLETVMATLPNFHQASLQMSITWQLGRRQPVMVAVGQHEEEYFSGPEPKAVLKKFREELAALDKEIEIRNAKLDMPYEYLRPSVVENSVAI
Description: Experiment No. 2: inhibition of 15-lipoxygenase in human leucocytes stimulated by ionophore and arachidonic acid (15-HETE). The format is cell-based. The note with it: Experiment No. 2, 15-HETE, ionophore A23187 and arachidonic acid. Here is the method: as §7, §8, §9, §10, §11, §12

The target in experiment [8] is T3, 12-lipoxygenase (human leucocytes). Description: Experiment No. 2: inhibition of 12-lipoxygenase in human leucocytes stimulated by ionophore and arachidonic acid (12-HETE). It is filed as cell-based. The note with it: Experiment No. 2, 12-HETE, ionophore A23187 and arachidonic acid. The method, then:
as §7, §8, §9, §10, §11, §12

Where [9] appears, read: Experiment No. 2, 5-HETE, ionophore A23187 and arachidonic acid, read-out: IC50 5-HETE.
[10] abbreviates: Experiment No. 2, LTB4, ionophore A23187 and arachidonic acid, read-out: IC50 LTB4 (converted).

xanthine oxidase, sequence (P80457 whole entry): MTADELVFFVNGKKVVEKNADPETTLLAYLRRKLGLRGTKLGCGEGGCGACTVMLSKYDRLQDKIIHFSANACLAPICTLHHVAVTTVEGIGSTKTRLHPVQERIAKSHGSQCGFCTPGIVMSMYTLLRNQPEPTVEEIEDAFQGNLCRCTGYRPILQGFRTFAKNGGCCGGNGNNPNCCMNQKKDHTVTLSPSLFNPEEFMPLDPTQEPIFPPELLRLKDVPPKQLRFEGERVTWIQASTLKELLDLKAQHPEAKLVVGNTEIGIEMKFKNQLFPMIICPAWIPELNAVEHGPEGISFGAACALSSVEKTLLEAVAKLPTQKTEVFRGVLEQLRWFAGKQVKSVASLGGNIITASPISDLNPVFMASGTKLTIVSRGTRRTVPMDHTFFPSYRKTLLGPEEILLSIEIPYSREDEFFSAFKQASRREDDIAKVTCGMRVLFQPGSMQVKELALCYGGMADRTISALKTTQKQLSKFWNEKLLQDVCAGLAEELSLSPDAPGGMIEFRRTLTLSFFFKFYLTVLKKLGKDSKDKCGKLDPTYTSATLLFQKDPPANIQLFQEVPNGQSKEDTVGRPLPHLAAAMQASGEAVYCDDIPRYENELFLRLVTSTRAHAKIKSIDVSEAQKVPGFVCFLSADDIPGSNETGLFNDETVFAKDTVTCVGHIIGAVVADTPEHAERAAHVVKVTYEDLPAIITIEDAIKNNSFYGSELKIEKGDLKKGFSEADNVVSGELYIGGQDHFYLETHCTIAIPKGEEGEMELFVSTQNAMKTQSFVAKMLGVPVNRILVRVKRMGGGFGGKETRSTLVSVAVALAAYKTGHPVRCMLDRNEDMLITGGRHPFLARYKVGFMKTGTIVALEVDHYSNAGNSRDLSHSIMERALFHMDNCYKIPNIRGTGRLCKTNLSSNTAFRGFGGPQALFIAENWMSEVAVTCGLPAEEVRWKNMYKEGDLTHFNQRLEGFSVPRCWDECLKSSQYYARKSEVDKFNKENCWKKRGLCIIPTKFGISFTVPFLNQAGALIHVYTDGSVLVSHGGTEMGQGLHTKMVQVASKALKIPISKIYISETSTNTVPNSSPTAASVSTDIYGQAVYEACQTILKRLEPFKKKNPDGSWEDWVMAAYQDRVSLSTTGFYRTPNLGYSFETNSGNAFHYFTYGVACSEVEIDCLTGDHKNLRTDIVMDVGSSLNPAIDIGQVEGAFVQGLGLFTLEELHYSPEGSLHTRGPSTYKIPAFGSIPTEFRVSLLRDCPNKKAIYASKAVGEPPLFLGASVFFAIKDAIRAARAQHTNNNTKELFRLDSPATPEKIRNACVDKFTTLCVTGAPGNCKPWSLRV
T1 sequence (P23219 24-599): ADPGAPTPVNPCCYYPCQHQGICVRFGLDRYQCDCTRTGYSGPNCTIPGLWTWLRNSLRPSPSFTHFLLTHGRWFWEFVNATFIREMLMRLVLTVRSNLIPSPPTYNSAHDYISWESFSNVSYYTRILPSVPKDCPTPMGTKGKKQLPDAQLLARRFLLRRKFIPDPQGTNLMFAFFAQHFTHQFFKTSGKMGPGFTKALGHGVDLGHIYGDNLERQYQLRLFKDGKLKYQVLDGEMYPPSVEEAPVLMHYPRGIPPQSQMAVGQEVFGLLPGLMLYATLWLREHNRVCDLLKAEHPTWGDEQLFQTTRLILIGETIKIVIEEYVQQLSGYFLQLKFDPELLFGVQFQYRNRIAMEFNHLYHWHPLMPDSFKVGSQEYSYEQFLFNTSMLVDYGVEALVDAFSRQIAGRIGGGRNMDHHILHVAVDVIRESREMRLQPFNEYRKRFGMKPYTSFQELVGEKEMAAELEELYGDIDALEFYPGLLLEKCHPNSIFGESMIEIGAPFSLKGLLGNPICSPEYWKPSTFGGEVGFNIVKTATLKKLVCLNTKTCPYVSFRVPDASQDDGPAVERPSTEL

As to `CC1CCC(C(C)C)C(Sc2ccc(O)c(O)c2)C1` (stereo not shown) [drawing 22], the IC50 (usually the concentration at which inhibition is half-maximal) in experiment [1] was determined as 16.8 µM.
Compound `CCCCCCC(C)Sc1ccc(O)c(O)c1` (stereo not shown) [drawing 23] came in with an IC50 in experiment [1] of 3.46 µM.
For the compound `Oc1ccc(S)cc1O` [drawing 27], the IC50 in experiment [2] was 237 µM.
`CCC(C)CSc1ccc(O)c(O)c1` (stereo not shown) [drawing 28] came in with an IC50 in experiment [2] of 511 µM.
`CCCCCCC(C)Sc1ccc(O)c(O)c1` (stereo not shown) [drawing 29] gave an IC50 in experiment [2] of 557 µM.
On to `CCC(C)CSc1ccc(O)c(O)c1` (stereo not shown) [drawing 30], for which the IC50 in experiment [3] and in experiment [4] was 1000 nM in each case.
With `Oc1ccc(S)cc1O` [drawing 31], the IC50 in experiment [3] and in experiment [4] was 2000 nM in each case.
Regarding `Oc1ccc(S)cc1O` [drawing 32], the IC50 is 1000 nM in experiment [5] (setting [9]), 3000 nM in experiment [5] (setting [10]), 20 µM in experiment [6] and 50 µM in experiment [7].
As to `CCC(C)CSc1ccc(O)c(O)c1` (stereo not shown) [drawing 33], the IC50 is 3000 nM in experiment [5] (setting [10]), 10 µM in experiment [8], 50 µM in experiment [6] and 10 µM in experiment [7].
As for `CCCCCCC(C)Sc1ccc(O)c(O)c1` (stereo not shown) [drawing 34], the IC50 in experiment [5] (setting [9]) is 1000 nM; in experiment [5] (setting [10]), 1000 nM; in experiment [8], 2 µM; in experiment [6], 2 µM; in experiment [7] it was 10 µM.
